According to patent EP2576536B1, “HAEMATOPOIETIC-PROSTAGLANDIN D2 SYNTHASE INHIBITORS” (priority 2010, dated 2011):
Several values for one entry are separate records, joined by “and”; a condition that tells them apart may be missing. Equal values may be shown once. Read-outs that look alike come from different tables or passages of the source.

Experiment: Rat pharmacokinetics, plasma concentration by LC-MS/MS after oral dose
Assay type: in vivo, Sprague Dawley rats
Protocol: Male adult Sprague Dawley rates (~165g) received a single oral bolus dose of 40mg/kg of compound 3 in a 0.5% methylcellulose/0.1% Tween80 by oral gavage. Rats were sacrificed when collecting blood and spleen samples just prior to dosing and at 0.5 hours, 2h, 8h and 24h (n=3 rats per time point), and the plasma concentration of compound 3 and the spleen PGD2 concentration was measured at each time point.
Blood samples were removed and kept cold at approximately 4°C immediately after collection to minimize degradation and centrifuged as soon as possible at approximately 4000 x g for 10 min. The plasma was transferred to a clean, pre-labelled polypropylene tube and frozen. Samples were stored at -20°C as soon as possible after collection to minimise degradation of the test item.
Plasma concentrations of 3 were determined using a screening LC-ms/ms method developed using the following parameters:
Samples were analysed alongside plasma standards. Concentration data were determined by back calculation from standard curve.

Concentration (individual rat, 0.5 h after 40mg/kg oral gavage): 263 ng/mL and 218 ng/mL
Concentration (individual rat, 2 h after 40mg/kg oral gavage): 73.5 ng/mL and 107 ng/mL
Concentration (individual rat, 8 h after 40mg/kg oral gavage): 17.3 ng/mL and 63.9 ng/mL and 51.8 ng/mL
Concentration (ng/mL) (individual rat, 24 h after 40mg/kg oral gavage): BLOQ^2
concentration at 0.5 h (male, Sprague Dawley, rat, plasma, oral, 40 mg/kg, 0.5 h after 40mg/kg oral gavage, N 3, read-out: Mean (± sem) Concentration): 219 ± 24.8 ng/mL
concentration at 2 h (male, Sprague Dawley, rat, plasma, oral, 40 mg/kg, 2 h after 40mg/kg oral gavage, N 3, read-out: Mean (± sem) Concentration): 91.8 ± 9.79 ng/mL
concentration at 8 h (male, Sprague Dawley, rat, plasma, oral, 40 mg/kg, 8 h after 40mg/kg oral gavage, N 3, read-out: Mean (± sem) Concentration): 44.3 ± 14 ng/mL
concentration at 24 h (male, Sprague Dawley, rat, plasma, oral, 40 mg/kg, 24 h after 40mg/kg oral gavage, N 3, BLOQ treated as 0.5 ng/mL, read-out: Mean (± sem) Concentration): 0.677 ± 0.177 ng/mL
concentration at 0.5 h (male, Sprague Dawley, rat, plasma, oral, 40 mg/kg, individual rat, 0.5 h after 40mg/kg oral gavage, read-out: Concentration): 177 ng/mL
concentration at 2 h (male, Sprague Dawley, rat, plasma, oral, 40 mg/kg, individual rat, 2 h after 40mg/kg oral gavage, read-out: Concentration): 94.8 ng/mL
concentration at 24 h (male, Sprague Dawley, rat, plasma, oral, 40 mg/kg, individual rat, 24 h after 40mg/kg oral gavage, read-out: Concentration): 1.03 ng/mL
oral bioavailability (rat, 40mg/kg oral gavage): orally bioavailable
presence in the serum (rat, 8 hours post delivery, 40mg/kg oral): present
SMILES: NC(=O)[C@H](Cc1ccccc1)NC(=O)c1ccc(-c2cccs2)nc1 [Compound 3, N-(1-amino-1-oxo-3-phenylpropan-2-yl)-6-(thiophen-2-yl)-nicotinamide]
